Source: patent publication US11267859B2, “GM-CSF mimetics and methods of making and using same” (The Regents of the University of Colorado, a body corporate, priority 2017, dated 2022)

Tests used:
mouse receptor = biological target: T1, mouse receptor (Mus musculus, UniProt P26955+Q00941); experiment: Activity for the mouse GM-CSF receptor
T1 sequence (Q00941 30-388): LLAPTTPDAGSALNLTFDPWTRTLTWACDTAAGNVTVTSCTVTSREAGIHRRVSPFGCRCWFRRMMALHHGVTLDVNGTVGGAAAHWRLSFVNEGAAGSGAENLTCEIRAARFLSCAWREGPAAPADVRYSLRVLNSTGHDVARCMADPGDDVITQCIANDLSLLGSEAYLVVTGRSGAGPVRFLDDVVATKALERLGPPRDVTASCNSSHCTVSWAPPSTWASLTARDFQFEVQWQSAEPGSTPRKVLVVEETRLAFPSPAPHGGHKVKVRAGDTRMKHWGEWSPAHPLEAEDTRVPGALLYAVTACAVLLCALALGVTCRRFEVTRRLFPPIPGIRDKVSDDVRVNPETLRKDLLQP
T1 sequence (P26955 23-896): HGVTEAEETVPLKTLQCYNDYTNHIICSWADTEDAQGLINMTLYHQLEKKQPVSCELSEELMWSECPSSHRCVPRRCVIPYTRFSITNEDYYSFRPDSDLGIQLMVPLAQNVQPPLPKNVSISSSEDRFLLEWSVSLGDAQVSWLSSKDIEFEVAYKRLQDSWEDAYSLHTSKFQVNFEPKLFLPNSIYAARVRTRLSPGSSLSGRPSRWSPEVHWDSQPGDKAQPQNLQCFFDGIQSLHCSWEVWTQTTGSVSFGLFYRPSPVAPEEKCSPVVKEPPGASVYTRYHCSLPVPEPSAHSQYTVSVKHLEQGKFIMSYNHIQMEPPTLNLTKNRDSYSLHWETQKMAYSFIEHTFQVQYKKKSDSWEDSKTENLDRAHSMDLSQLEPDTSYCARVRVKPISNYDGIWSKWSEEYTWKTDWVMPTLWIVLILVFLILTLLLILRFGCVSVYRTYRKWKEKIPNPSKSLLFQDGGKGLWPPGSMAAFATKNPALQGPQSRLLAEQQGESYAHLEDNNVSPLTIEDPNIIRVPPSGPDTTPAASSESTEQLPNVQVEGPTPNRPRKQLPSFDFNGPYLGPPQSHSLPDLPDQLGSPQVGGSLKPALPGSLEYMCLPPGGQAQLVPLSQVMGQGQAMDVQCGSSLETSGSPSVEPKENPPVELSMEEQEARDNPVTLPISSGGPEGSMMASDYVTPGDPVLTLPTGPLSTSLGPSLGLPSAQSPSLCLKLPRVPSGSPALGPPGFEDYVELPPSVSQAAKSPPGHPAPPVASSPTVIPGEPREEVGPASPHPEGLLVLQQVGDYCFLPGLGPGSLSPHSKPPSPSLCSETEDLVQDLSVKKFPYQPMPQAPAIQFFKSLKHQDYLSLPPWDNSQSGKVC

human receptor = biological target: T2, human receptor (Homo sapiens, UniProt P15509+P32927); experiment: Activity for the human GM-CSF receptor
T2 sequence (P15509 23-400): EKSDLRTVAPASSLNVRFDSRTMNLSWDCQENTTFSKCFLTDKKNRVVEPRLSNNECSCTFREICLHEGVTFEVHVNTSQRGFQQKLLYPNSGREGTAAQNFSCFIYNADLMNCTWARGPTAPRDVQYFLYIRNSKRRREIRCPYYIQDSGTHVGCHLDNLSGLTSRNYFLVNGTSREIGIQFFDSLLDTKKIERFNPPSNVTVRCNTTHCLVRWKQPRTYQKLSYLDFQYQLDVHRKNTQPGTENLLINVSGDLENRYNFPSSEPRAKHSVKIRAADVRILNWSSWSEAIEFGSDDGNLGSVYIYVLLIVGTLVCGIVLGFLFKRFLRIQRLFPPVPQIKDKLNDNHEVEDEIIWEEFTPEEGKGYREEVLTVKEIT
T2 sequence (P32927 17-897): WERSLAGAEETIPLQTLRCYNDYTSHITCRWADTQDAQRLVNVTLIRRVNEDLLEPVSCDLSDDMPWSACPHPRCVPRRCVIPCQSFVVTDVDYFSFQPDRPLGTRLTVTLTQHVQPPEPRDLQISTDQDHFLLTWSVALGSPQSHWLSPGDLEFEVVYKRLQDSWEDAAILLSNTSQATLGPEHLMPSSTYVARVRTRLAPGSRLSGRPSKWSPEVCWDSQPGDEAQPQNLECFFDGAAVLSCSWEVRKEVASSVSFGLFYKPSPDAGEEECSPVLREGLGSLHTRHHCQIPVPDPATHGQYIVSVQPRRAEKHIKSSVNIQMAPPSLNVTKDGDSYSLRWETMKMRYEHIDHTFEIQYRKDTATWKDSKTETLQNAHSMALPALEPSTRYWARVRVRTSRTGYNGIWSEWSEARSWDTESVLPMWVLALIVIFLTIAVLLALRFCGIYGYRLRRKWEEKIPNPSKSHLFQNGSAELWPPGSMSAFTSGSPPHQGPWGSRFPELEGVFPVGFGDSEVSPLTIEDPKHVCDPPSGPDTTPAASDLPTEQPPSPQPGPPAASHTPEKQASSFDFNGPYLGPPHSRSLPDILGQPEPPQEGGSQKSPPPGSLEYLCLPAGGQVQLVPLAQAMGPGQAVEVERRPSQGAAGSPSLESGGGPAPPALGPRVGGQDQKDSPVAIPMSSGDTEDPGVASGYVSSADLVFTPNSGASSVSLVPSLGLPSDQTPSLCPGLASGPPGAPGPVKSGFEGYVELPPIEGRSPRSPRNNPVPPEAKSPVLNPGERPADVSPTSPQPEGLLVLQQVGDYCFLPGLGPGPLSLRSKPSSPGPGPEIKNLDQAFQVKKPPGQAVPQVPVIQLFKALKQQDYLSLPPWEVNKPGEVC

activity for the mouse receptor (mouse receptor): has activity | activity for the human receptor (human receptor): does not have activity
Sequence: QPWEHVNAIQEAR {PEG4} DFLLVIP {PEG4} QPWEHVNAIQEAR {PEG4} DFLLVIP [Mimetic M7]
